According to patent US20060069132A1, “Azolecarboxamide herbicides” (priority 2004, published 2006):

How the values were obtained:
barnyardgrass [1] = assay: Test B pre-/postemergence herbicide test; format: in vivo, Echinochloa crus-galli; conditions: for Barnyardgrass plant response rating: Postemergence, scale 0 (no effect) to 100 (complete control)
Procedure, shortened: (§1)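 Plants compared with untreated controls 13–15 days post-treatment and given a visual 0–100 injury score. Applications: preemergence to seeds; postemergence at 1- to 4-leaf (2–18 cm); paddy species flooded, 2-leaf stage. Vehicle non-phytotoxic, surfactant included.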

Surinam grass = assay: Test B pre-/postemergence herbicide test; format: in vivo, Urochloa decumbens
Procedure, shortened: (§2)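 Formulation: non-phytotoxic solvent mix with surfactant. Timing: preemergence on seed and postemergence on 2–18 cm plants, applied concurrently. Readout after 13–15 d greenhouse: visual 0–100 control rating against controls.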

cocklebur = assay: Test B pre-/postemergence herbicide test; format: in vivo, Xanthium strumarium
Procedure, shortened: as §1

corn = assay: Test B pre-/postemergence herbicide test; format: in vivo, Zea mays
Procedure, shortened: as §2

large crabgrass = assay: Test B pre-/postemergence herbicide test; format: in vivo, Digitaria sanguinalis
Procedure, shortened: as §2

giant foxtail = assay: Test B pre-/postemergence herbicide test; format: in vivo, Setaria faberi
Procedure, shortened: as §2

lambsquarters = assay: Test B pre-/postemergence herbicide test; format: in vivo, Chenopodium album
Procedure, shortened: as §2

morningglory = assay: Test B pre-/postemergence herbicide test; format: in vivo, Ipomoea coccinea
Procedure, shortened: as §1

pigweed = assay: Test B pre-/postemergence herbicide test; format: in vivo, Amaranthus retroflexus
Procedure, shortened: as §2

velvetleaf = assay: Test B pre-/postemergence herbicide test; format: in vivo, Abutilon theophrasti
Procedure, shortened: as §2

blackgrass [2] = assay: Test B postemergence herbicide test; format: in vivo, Alopecurus myosuroides
Procedure, shortened: (§3)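 Formulated test chemicals went onto postemergence plants measuring 2 to 18 cm, at one to four leaves. For the paddy assay, species had reached two leaves. Scoring took place 13–15 days later by eye, relative to untreated plants, using 0 for no effect up to 100 for full control.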

wheat [3] = assay: Test B postemergence herbicide test; format: in vivo, Triticum aestivum; parameters: key to Wheat plant response rating: 0 = no effect, 100 = complete control
Procedure, shortened: (§4)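 Visual ratings, 0 (no effect) to 100 (complete control), made versus controls after 13–15 d greenhouse. Paddy plants treated at 2-leaf stage; postemergence plants at 1- to 4-leaf stage, 2–18 cm tall.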

wild oat [4] = assay: Test B postemergence herbicide test; format: in vivo, Avena fatua
Procedure, shortened: as §4

rice = assay: Test B flooded paddy test; format: in vivo, Oryza sativa; conditions: 1000 g ai/ha, scale 0 to 100 (0 no effect, 100 complete control)
Procedure, shortened: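 Scale 0–100: zero equals no visible effect, 100 complete control, judged by eye relative to controls. Timing: 13 to 15 days in greenhouse post-treatment. Growth stage at spraying: two leaves (paddy) or one to four leaves, 2–18 cm (postemergence).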

[5] = tested on: small flower umbrella sedge; assay: Test B flooded paddy test; format: in vivo, Cyperus difformis; conditions: 1000 g ai/ha, scale 0 to 100 (0 no effect, 100 complete control)
Procedure, shortened: as §3

ducksalad = assay: Test B flooded paddy test; format: in vivo, Heteranthera limosa; conditions: 1000 g ai/ha, scale 0 to 100 (0 no effect, 100 complete control)
Procedure, shortened: as §3

barnyardgrass [6] = assay: Test B flooded paddy test; format: in vivo, Echinochloa crus-galli; conditions: 1000 g ai/ha, scale 0 to 100 (0 no effect, 100 complete control)
Procedure, shortened: as §3

winter barley = assay: Test C postemergence herbicide test; format: in vivo, Hordeum vulgare
Procedure, shortened: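 Plants were grown to the 1- to 4-leaf stage (2–18 cm) and then treated postemergence, or grown to the 2-leaf stage for the flooded paddy test. They were held in a greenhouse for 12 to 14 days and then scored by eye against controls, where 0 is no effect and 100 is complete control.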

blackgrass [7] = assay: Test C postemergence herbicide test; format: in vivo, Alopecurus myosuroides
Procedure, shortened: (§5)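 Injury scored visually against controls on a 0 (no effect) to 100 (complete control) scale, 12 to 14 days after treatment in greenhouse. Flooded paddy plants treated at 2-leaf stage; postemergence plants at 1- to 4-leaf stage, 2 to 18 cm tall.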

canarygrass = assay: Test C postemergence herbicide test; format: in vivo, Phalaris minor
Procedure, shortened: as §5

downy bromegrass = assay: Test C postemergence herbicide test; format: in vivo, Bromus tectorum
Procedure, shortened: as §5

green foxtail = assay: Test C postemergence herbicide test; format: in vivo, Setaria viridis
Procedure, shortened: as §5

Italian ryegrass = assay: Test C postemergence herbicide test; format: in vivo, Lolium multiflorum
Procedure, shortened: as §5

wheat [8] = assay: Test C postemergence herbicide test; format: in vivo, Triticum aestivum
Procedure, shortened: as §5

wild oat [9] = assay: Test C postemergence herbicide test; format: in vivo, Avenafatua
Procedure, shortened: as §5

windgrass = assay: Test C postemergence herbicide test; format: in vivo, Apera spica-venti
Procedure, shortened: as §5

[10] = 125 g ai/ha, 0 is no effect, 100 is complete control, preemergence
[11] = Postemergence, 500 g ai/ha, scale 0 (no effect) to 100 (complete control)
[12] = postemergence, 125 g ai/ha, scale 0 to 100
[13] = Postemergence, 500 g ai/ha, scale 0 to 100
[14] = Postemergence, 250 g ai/ha, scale 0 to 100, 0 no effect, 100 complete control
[15] = postemergence, 62 g ai/ha, scale 0 to 100
[16] = Postemergence, 500 g ai/ha, scale 0 to 100, 0 no effect, 100 complete control

For `C=CCN(CC=C)C(=O)c1cccc(NC(=O)c2nn(C(C)(C)C)nc2CC)c1` [Compound 415], the “Plant response rating (0 to 100 scale), Barnyardgrass” value (barnyardgrass [1]; [10]) was 10, the “Barnyardgrass plant response rating” value (barnyardgrass [1]; 125 g ai/ha) was 20 and the “Barnyardgrass plant response rating” value (barnyardgrass [1]; 500 g ai/ha) was 20. The “Plant response rating (0 to 100 scale), Surinam Grass” value (Surinam grass; [10]) was 20, the “Surinam Grass plant response rating” value (Surinam grass; [11]) was 30 and the “Surinam Grass plant response rating” value (Surinam grass; [12]) was 10. The “Plant response rating (0 to 100 scale), Cocklebur” value (cocklebur; [10]) was 0, the “Cocklebur plant response rating” value (cocklebur; [11]) was 50 and the “Cocklebur plant response rating” value (cocklebur; [12]) was 30. For the same compound, the “Plant response rating (0 to 100 scale), Corn” value (corn; [10]) was 0, the “Corn plant response rating” value (corn; [11]) was 20 and the “Corn plant response rating” value (corn; [12]) was 20. The “Plant response rating (0 to 100 scale), Crabgrass, Large” value (large crabgrass; [10]) was 70, the “Crabgrass, Large plant response rating” value (large crabgrass; [11]) was 50 and the “Crabgrass, Large plant response rating” value (large crabgrass; [12]) was 20. For the same compound, the “Plant response rating (0 to 100 scale), Foxtail, Giant” value (giant foxtail; [10]) was 20, the “Foxtail, Giant plant response rating” value (giant foxtail; [11]) was 40 and the “Foxtail, Giant plant response rating” value (giant foxtail; [12]) was 20. For the same compound, the “Plant response rating (0 to 100 scale), Lambsquarters” value (lambsquarters; [10]) was 50, the “Lambsquarters plant response rating” value (lambsquarters; [11]) was 80 and the “Lambsquarters plant response rating” value (lambsquarters; [12]) was 70. For the same compound, the “Plant response rating (0 to 100 scale), Morningglory” value (morningglory; [10]) was 0, the “Morningglory plant response rating” value (morningglory; [11]) was 40 and the “Morningglory plant response rating” value (morningglory; [12]) was 10. The “Plant response rating (0 to 100 scale), Pigweed” value (pigweed; [10]) was 60, the “Pigweed plant response rating” value (pigweed; [11]) was 90 and the “Pigweed plant response rating” value (pigweed; [12]) was 70. For the same compound, the “Plant response rating (0 to 100 scale), Velvetleaf” value (velvetleaf; [10]) was 20, the “Velvetleaf plant response rating” value (velvetleaf; [11]) was 50 and the “Velvetleaf plant response rating” value (velvetleaf; [12]) was 30. For the same compound, the “Blackgrass plant response rating” value (blackgrass [2]; [11]) was 40, the “Blackgrass plant response rating” value (blackgrass [2]; [12]) was 30 and the “Wheat plant response rating” value (wheat [3]; 500 g ai/ha, scale 0 to 100, 0 no effect, 100 complete control, preemergence) was 30. The “Wheat plant response rating” value (wheat [3]; [11]) was 30, the “Wheat plant response rating” value (wheat [3]; [12]) was 20 and the “Oat, Wild plant response rating” value (wild oat [4]; [11]) was 40. The “Oat, Wild plant response rating” value (wild oat [4]; [12]) was 30, the “Rice plant response rating” value (rice) was 50 and the “Sedge, Umbrella plant response rating” value [5] was 80. The “Ducksalad plant response rating” value (ducksalad) was 80, the “Barnyardgrass plant response rating” value (barnyardgrass [6]) was 60 and the “Barley, Winter plant response rating” value (winter barley; [13]) was 45. The “Plant response rating, Barley, Winter” value (winter barley; Postemergence, 125 g ai/ha, scale 0 to 100, 0 no effect, 100 complete control) was 35, the “Plant response rating, Barley, Winter” value (winter barley; [14]) was 35 and the “Plant response rating, Barley, Winter” value (winter barley; postemergence, 62 g ai/ha, scale 0 to 100 (0 no effect, 100 complete control)) was 35. The “Blackgrass plant response rating” value (blackgrass [7]; [13]) was 65, the “Plant response rating, Blackgrass” value (blackgrass [7]; [14]) was 60 and the “Plant response rating, Blackgrass” value (blackgrass [7]; [12]) was 60. The “Plant response rating, Blackgrass” value (blackgrass [7]; [15]) was 50, the “Plant response rating, Canarygrass” value (canarygrass; [14]) was 55 and the “Plant response rating, Canarygrass” value (canarygrass; [16]) was 65. For the same compound, the “Plant response rating, Canarygrass” value (canarygrass; [12]) was 50, the “Plant response rating, Canarygrass” value (canarygrass; [15]) was 45 and the “Plant response rating, Bromegrass, Downy” value (downy bromegrass; [14]) was 60. For the same compound, the “Plant response rating, Bromegrass, Downy” value (downy bromegrass; [16]) was 65, the “Plant response rating, Bromegrass, Downy” value (downy bromegrass; [12]) was 60 and the “Plant response rating, Bromegrass, Downy” value (downy bromegrass; [15]) was 60. The “Plant response rating, Foxtail, Green” value (green foxtail; [14]) was 50, the “Plant response rating, Foxtail, Green” value (green foxtail; [16]) was 60 and the “Plant response rating, Foxtail, Green” value (green foxtail; [12]) was 50. The “Plant response rating, Foxtail, Green” value (green foxtail; [15]) was 45, the “Plant response rating, Ryegrass, Italian” value (Italian ryegrass; [16]) was 45 and the “Plant response rating, Ryegrass, Italian” value (Italian ryegrass; [12]) was 40. For the same compound, the “Plant response rating, Ryegrass, Italian” value (Italian ryegrass; [15]) was 30, the “Plant response rating, Wheat” value (wheat [8]; [16]) was 30 and the “Plant response rating, Wheat” value (wheat [8]; [12]) was 25. For the same compound, the “Plant response rating, Wheat” value (wheat [8]; [15]) was 20, the “Plant response rating, Oat, Wild” value (wild oat [9]; [16]) was 55 and the “Plant response rating, Oat, Wild” value (wild oat [9]; [12]) was 45. The “Plant response rating, Oat, Wild” value (wild oat [9]; [15]) was 40, the “Plant response rating, Windgrass” value (windgrass; [16]) was 65 and the “Plant response rating, Windgrass” value (windgrass; [12]) was 50. For the same compound, the “Plant response rating, Windgrass” value (windgrass; [15]) was 50.
